According to patent US6153634A, “4,5-azolo-oxindoles” (Hoffmann-La Roche Inc., priority 1999, dated 2000):

The compounds below were run on MDA-MB-435 (assay: Cell-based antiproliferative (MTT) assay, MDA-MB-435 breast carcinoma). Details: Homo sapiens, MDA-MB-435, 120 h, cell line MDA-MB435 (breast), 5 days post addition, one experiment mostly, average where repeated.
Experimental: The estrogen receptor negative epithelial breast carcinoma line (MDA-MB-435) was purchased from American Type Cell Culture Collection (ATCC; Rockville, Md.) and was grown in the medium recommended by ATCC. For analysis of the effect of the test compounds on growth of these cells, the cells were plated at 2000 cells per well in a 96-well tissue culture plate, and were incubated overnight at 37° C. with 5% CO2. The next day, the test compounds were dissolved in 100% dimethyl sulfoxide (DMSO) to yield a 10 mM stock solution. Each compound was diluted with sterile medium to 1 mM in a sufficient quantity to yield a final concentration of 120 μM. The compounds were then serially diluted in medium with 1.2% DMSO. […] The plates were returned to the incubator, and 5 days post addition of test compound, were analyzed as described below. […] Absorbencies were read in a microtiter plate reader (Molecular Dynamics) at a wavelength of 570 nm with a 650 nm reference. Percent inhibition was calculated by subtracting the absorbance of the blank (no cell) wells from all wells, then subtracting the division of the average absorbance of each test duplicate by the average of the controls from 1.00. Inhibitory concentrations (IC50) were determined from the linear regression of a plot of the logarithm of the concentration versus the percent inhibition.

| SMILES | IC50 [µM] |
| --- | --- |
| Cc1nc[nH]c1/C=C1\C(=O)Nc2ccc3[nH]cnc3c21 [SS, (Z)-8-[(4-Methyl-1H-imidazol-5-yl)methylene]-3,6,7,8-tetrahydro-pyrrolo[3,2-e]benzimidazol-7-one] | < 3.5 |

Each compound was assayed against T1, human Cyclin E/CDK2 (Homo sapiens, UniProt P24941) (assay: CDK2 FlashPlate Assay (inhibition of Rb phosphorylation)). Details: Concentration 0.5 μM; Cyclin E/CDK2, Rb-coated FlashPlates.
T1 construct: made in house; host or cells: insect cells
Format: biochemical
Experimental: To determine inhibition of CDK2 activity, purified recombinant retinoblastoma (Rb) protein was coated on 96 well FlashPlates (New England Nuclear, Boston, Mass.). Rb is a natural substrate for phosphorylation by CDK2 (Herwig and Strauss Eurr. J. Biochem., Vol. 246 (1997) pp. 581-601 and references therein). Recombinant active human Cyclin E/CDK2 complexes were partially purified from extracts of insect cells. The active Cyclin E/CDK2 was added to the Rb-coated FlashPlates along with ^33 P-ATP and dilutions of test compounds. Plates were incubated for 25 minutes at room temperature with shaking, then washed and counted in the Topcount scintillation counter (Packard Instrument Co., Downers Grove, Ill.). Dilutions of test compounds were tested in duplicate in each assay. The percent inhibition of Rb phosphorylation, which is a measure of the inhibition of CDK2 activity, was determined according to the following formula: [formula] where "test compound" refers to the average counts per minute of the test duplicates, "nonspecific" refers to the average counts per minute when no Cyclin E/CDK2 was added, and "total" refers to the average counts per minute when no compound was added.

| SMILES | inhibition at 0.5 µM [%] |
| --- | --- |
| COC(=O)c1ccc(Nc2nc3c4c(ccc3[nH]2)NC(=O)/C4=C\c2[nH]ccc2OC)cc1 [EE, (Z)-4-[[8-[(3-Methoxy-1H-pyrrol-2-yl)methylene]-7-oxo-3,6,7,8-tetrahydro-imidazo[4,5-e]indol-2-yl]amino]-benzoic acid methyl ester] | < 50 |
| COc1ccc(CCNc2nc3c4c(ccc3[nH]2)NC(=O)/C4=C\c2[nH]ccc2OC)cc1OC [GG, (Z)-2-[N-[2-(3,4-Dimethoxyphenyl)ethyl]amino]-8-[(3-methoxy-1H-pyrrol-2-yl)methylene]-3,6,7,8-tetrahydro-pyrrolo[3,2-e]benzimidazol-7-one] | < 50 |
| COc1cc[nH]c1/C=C1\C(=O)Nc2ccc3[nH]c(Nc4cccc5ccccc45)nc3c21 [MM, (Z)-8-[(3-Methoxy-1H-pyrrol-2-yl)methylene]-2-[N-(1-naphthyl)amino]-3,6,7,8-tetrahydro-pyrrolo[3,2-e]benzimidazol-7-one] | > 50 |
| COc1cc[nH]c1/C=C1\C(=O)Nc2ccc3[nH]c(NCc4ccc5c(c4)OCO5)nc3c21 [VV, (Z)-2-[N-(1,3-Benzodioxol-5-yl)methylamino]-8-[(3-methoxy-1H-pyrrol-2-yl)methylene]-3,6,7,8-tetrahydro-pyrrolo[3,2-e]benzimidazol-7-one] | < 50 |
| COc1cc[nH]c1/C=C1\C(=O)Nc2ccc3[nH]c(NCCCc4ccccc4)nc3c21 [XX, (Z)-8-[(3-Methoxy-1H-pyrrol-2-yl)methylene]-2-[N-(3-phenylpropyl)amino]-3,6,7,8-tetrahydro-pyrrolo[3,2-e]benzimidazol-7-one] | < 50 |
| COc1ccc(Nc2nc3c4c(ccc3[nH]2)NC(=O)/C4=C\c2[nH]ccc2OC)cc1OC [Y, (Z)-2-[N-(3,4-Dimethoxyphenyl)amino]-8-[(3-methoxy-1H-pyrrol-2-yl)methylene]-3,6,7,8-tetrahydro-pyrrolo[3,2-e]benzimidazol-7-one] | < 50 |
| COc1ccc(Nc2nc3c4c(ccc3[nH]2)NC(=O)/C4=C\c2[nH]ccc2OC)cc1 [Z, (Z)-2-[N-(4-Methoxyphenyl)amino]-8-[(3-methoxy-1H-pyrrol-2-yl)methylene]-3,6,7,8-tetrahydro-pyrrolo[3,2-e]benzimidazol-7-one] | < 50 |

Other lines, results leading:

| inhibition at 0.5 µM [%] | SMILES |
| --- | --- |
| < 50 | COc1cc[nH]c1/C=C1\C(=O)Nc2ccc3[nH]c(Nc4cccc(C(C)=O)c4)nc3c21 [BB, (Z)-2-[N-(3-Acetylphenyl)amino]-8-[(3-methoxy-1H-pyrrol-2-yl)methylene]-3,6,7,8-tetrahydro-pyrrolo[3,2-e]benzimidazol-7-one] |
| < 50 | CCOC(=O)c1ccc(Nc2nc3c4c(ccc3[nH]2)NC(=O)/C4=C\c2[nH]ccc2OC)cc1 [CC, (Z)-4-[[8-[(3-Methoxy-1H-pyrrol-2-yl)methylene]-7-oxo-3,6,7,8-tetrahydro-imidazo[4,5-e]indol-2-yl]amino]-benzoic acid ethyl ester] |
| > 50 | COc1cc[nH]c1/C=C1\C(=O)Nc2ccc3[nH]c(NCc4ccc(F)cc4)nc3c21 [FF, (Z)-2-[N-[(4-Fluorophenyl)methyl]amino]-8-[(3-methoxy-1H-pyrrol-2-yl)methylene]-3,6,7,8-tetrahydro-pyrrolo[3,2-e]benzimidazol-7-one] |
| < 50 | COc1ccccc1Nc1nc2c3c(ccc2[nH]1)NC(=O)/C3=C\c1[nH]ccc1OC [II, (Z)-2-[N-(2-Methoxyphenyl)amino]-8-[(3-methoxy-1H-pyrrol-2-yl)methylene]-3,6,7,8-tetrahydro-pyrrolo[3,2-e]benzimidazol-7-one] |
| < 50 | COc1cc[nH]c1/C=C1\C(=O)Nc2ccc3[nH]c(NCCCCc4ccccc4)nc3c21 [JJ, (Z)-8-[(3-Methoxy-1H-pyrrol-2-yl)methylene]-2-[N-(4-phenylbutyl)amino]-3,6,7,8-tetrahydro-pyrrolo[3,2-e]benzimidazol-7-one] |
| > 50 | CCOC(=O)CCCNc1nc2c3c(ccc2[nH]1)NC(=O)/C3=C\c1[nH]ccc1OC [LL, (Z)-4-[[8-[(3-Methoxy-1H-pyrrol-2-yl)methylene]-7-oxo-3,6,7,8-tetrahydro-imidazo[4,5-e]indol-2-yl]amino]-butanoic acid ethyl ester] |
| > 50 | COc1cc[nH]c1/C=C1\C(=O)Nc2ccc([N+](=O)[O-])c(N=[N+]=[N-])c21 [M, (Z)-4-Azido-1,3-dihydro-3-[(3-methoxy-1H-pyrrol-2-yl)methylene]-5-nitro-2H-indol-2-one] |
| > 50 | COc1cc[nH]c1/C=C1\C(=O)Nc2ccc3[nH]c(NCCN4CCCCC4)nc3c21 [NN, (Z)-8-[(3-Methoxy-1H-pyrrol-2-yl)methylene]-2-[N-[2-(N-piperidinyl)ethyl]-amino]-3,6,7,8-tetrahydro-pyrrolo[3,2-e]benzimidazol-7-one] |
| < 50 | COc1cc[nH]c1/C=C1\C(=O)Nc2ccc3[nH]c(NCc4cccc5ccccc45)nc3c21 [WW, (Z)-8-[(3-Methoxy-1H-pyrrol-2-yl)methylene]-2-[N-(1-naphthalenyl)methylamino]-3,6,7,8-tetrahydro-pyrrolo[3,2-e]benzimidazol-7-one] |
| < 50 | COc1cc[nH]c1/C=C1\C(=O)Nc2ccc3[nH]c(Nc4ccc5c(c4)CCC5)nc3c21 [YY, (Z)-2-[N-(2,3-Dihydro-1H-inden-5-yl)amino]-8-[(3-methoxy-1H-pyrrol-2-yl)methylene]-3,6,7,8-tetrahydro-pyrrolo[3,2-e]benzimidazol-7-one] |

Same assay, conditions: Cyclin E/CDK2, Rb-coated FlashPlates, 33P-ATP, 25 min room temperature

| SMILES | IC50 [µM] |
| --- | --- |
| COc1cc[nH]c1/C=C1\C(=O)Nc2ccc3[nH]c(-c4ccc(C(=O)O)cc4)nc3c21 [R] | < 3.5 |
